The values that follow come from US20240335547A1, “MODIFIED CHOLIC ACID CONJUGATES” (priority 2022, published 2024).

The subject of data set [1] is human coronavirus 229E. Kind of data set: Therapeutic activity against human coronavirus 229E in HFF cells. The class given is cell-based. The following applies: Human coronavirus 229E, HFF; added 24 hours post infection, cells cultured for two weeks, cell viability; read-out: EC50. The procedure:
(1) HFF cells (5×104) were seeded with 1 ml of DMEM media supplemented with 10% FBS in each well of four 24-well tissue culture plates. (2) Cell were cultured for 3 days until HFF cells in each well attained 90% confluency (media was changed 1 day before infection). 10 μl of the 10-time diluted original solution of coronavirus, about 1×10^5 PFU were added into each well. Infection was allowed to proceed overnight. (3) The media was changed 24 hours post infection. CSA-44 was added to test their anti-viral effects. Ten different concentrations of the drug were tested. They were 15 μg/ml, 10 μg/ml, 9 μg/ml, 8 μg/ml, 7 μg/ml, 6 μg/ml, 5 μg/ml, 4 μg/ml, 3 μg/ml, and 2 μg/ml with 0 μg/ml as the control. Each concentration has 12 wells for test. Cells were cultured for two weeks, and cell viability was quantified. CSA-44 was effective in inhibiting viral replication and growth. The values of EC50 (where EC is the concentration of the active that gives 50% of the maximal response) of CSA-44 is identified as 4 μg/ml.
(1) HFF cells (5×104) were seeded with 1 ml of DMEM media supplemented with 10% FBS in each well of four 24-well tissue culture plates. (2) Cells were cultured for 3 days until HFF cells in each well attained 90% confluency (media was changed 1 day before infection). Ten μl of the 10-time diluted original solution of coronavirus, about 1×10^5 PFU, were added into each well. Infection was allowed to proceed overnight. (3) The media was changed 24 hours post infection. Different concentrations of CSA-44 were added to test their anti-viral effects. Each concentration has 12 wells for test. Cells were cultured in the presence of CSA-44 for […] and cell viability was quantified.
(1) HFF cells (5×104) were seeded with 1 ml of DMEM media supplemented with 10% FBS in each well of four 24-well tissue culture plates. (2) Cells were cultured for 3 days until HFF cells in each well attained 90% confluency (media was changed 1 day before infection). […] Cells were cultured for two weeks, and cell viability was quantified. […]

A short description of data set [2]: Histopathological studies (H&E staining, imaging) of lungs of infected and non-infected mice. In kind it is in vivo, BALB/c mice. The procedure: Group A: No infection, treated with PBS: Ten (10) BALB/c 6-weeks old female mice were used for this group. Mice were first anesthetized with isoflurane. Each mouse was intranasally treated with one dose of PBS (75 ul). Mice were sacrificed at 72 hrs, and 7 days post treatment. The lungs from these mice were collected for immunohistochemistry and cytokines analysis.
Group B: No infection, treated with Compound 12: Twenty (20) BALB/c 6-weeks old female mice was used for this group. Mice were first anesthetized with isoflurane. Each mouse was intranasally treated with one dose of 0.5 mg of […] diluted in PBS (75 ul). Mice were sacrificed at 24 hrs, 48 hrs, 72 hrs, and 7 days post treatment. The lungs from these mice were collected for immunohistochemistry and cytokines analysis.
Group C: Infection with 229E, treated with PBS: Thirty five (35) BALB/c 6-weeks old female mice were used for this group. Mice were first anesthetized with isoflurane. Each mouse was intranasally infected with 1×105 plaque forming unit (pfu) of HCoV-229E and then treated with PBS (75 ul) 24 hours later. Mice were sacrificed at 24 hrs post infection, and 24 hrs, 48 hrs, 72 hrs, 6 days, and 7 days post treatment. The lungs from these mice were collected for viral load, immunohistochemistry and cytokines analysis.
Group D: Infection with 229E, treated with Compound 12: Forty Five (45) BALB/c 6-weeks old female mice were used for this group. Mice were first anesthetized with isoflurane. Each mouse was intranasally infected with 1×10^5 pfu of HCoV-229E and then treated with 0.5 mg of Compound 12 diluted in PBS (75 ul) 24 hours later. Mice from this group were sacrificed at 24 hrs, 48 hrs, 72 hrs, 6 days and 7 days post treatment. The lungs from these mice were collected for viral load, immunohistochemistry and cytokines analysis.

Data set [3] deals with Coronavirus 229E. As to the kind of experiment: "Disinfectant" experiments: virus pre-mixed with compound, then added to HFFs. In kind it is cell-based. The following applies: Human coronavirus 229E, 0.25 h; mixed with virus 15 minutes at room temperature before adding to HFFs. The procedure: In the “disinfectant” experiments, stock solution of Compound 12 was generated by dissolving the compound in 10% DMSO solution. Different amounts of Compound 12 from the stock solution were mixed with 10^4 PFU of Coronavirus 229E. After incubation at room temperature for 15 minutes, the mixture of virus and Compound 12 was added to the culture of primary human foreskin fibroblasts (HFFs). At 24 hours post-infection, culture medium was changed and the infected HFFs were further cultured in the absence of Compound 12. The level of inhibition of virus infection and production was determined.

Data set [4] in a line: in vitro. The following applies: human.
Data set [5] deals with Pseudomonas. As to the kind of experiment: Bactericidal activity MIC/MBC. The class given is cell-based. The following applies: Gram−.
The conditions of data set [6]: 7 days, pH 7.
Source text: Storage stability in buffer was monitored over time of at least 7 days to determine the effect of solution pH and degradation.

The structures appear in SMILES notation. Converted amounts (≈) assume the structure as drawn.

With `C[C@H](CCC(=O)NCCNC(=O)CCCC[C@@H]1SCC2NC(=O)NC21)C1CCC2C3C(C[C@H](OC(=O)CCN)[C@@]21C)[C@@]1(C)CC[C@@H](OC(=O)CCN)CC1C[C@H]3OC(=O)CCN` (stereo partly shown) [Compound 12], the EC50 (commonly the concentration needed to bring the measured effect to its halfway point) in data set [1] was 3 µg/mL (≈ 3.37 µM). Besides, the “effect on the morphology of the lung” value in data set [2] (3 days post treatment, 0.5 mg intranasally) was “does not cause significant detrimental effects”. Also, the toxicity in vivo entry in data set [2] (dosage 0.5 mg/mice) is recorded as “does not exhibit significant toxicity in vivo”. Moreover, the “detection of compound in the lung tissues (staining and imaging)” value in data set [2] (intranasal, 0.5 mg) is listed as “detected at 1-2 days post treatment but not in 3 days post treatment”. Moreover, the EC50 in data set [3] came out at 500 µg/mL (≈ 562 µM). For the same compound, the CC50 at 3 days in data set [4] is more than 200 µM. In addition, in data set [5], the minimum bactericidal concentration (MBC) (commonly the smallest concentration meeting the test's criterion for killing) was 1060 µg/mL (≈ 1190 µM) and the MIC – broadly, the lowest concentration that inhibits growth of the organism – came out at 530 µg/mL (≈ 595 µM). In data set [6], the “stability, time” value is recorded as “up to 7 days” and the “stable with no degradation, time” value is “at least 7 days”.
